Measurements reported in publication PMC11219860, “A chemogenetic approach for dopamine imaging with tunable sensitivity” (Nature Communications, 2024).

Assays:
[1] = In vivo pharmacokinetics, free brain concentration (LC/MS); design: species or system mouse; details: 10 mg/kg i.p.
Method: To measure free brain and plasma concentrations of DETQ in the mouse, male C57Bl6/N mice from Taconic Biosciences (Germantown, NY, USA) weighing 23–25 g (9–10 weeks old) were used for this study. The animals were acclimated for at least 72 hours after arrival from the breeder and housed five per cage in “shoe box” size cages with free access to food and water (lights on from 5 am to 5 pm) before use. The experiment was approved by the Institutional IACUC committee, and Eli Lilly is an AAALAC-certified facility. DETQ (Eli Lilly, see above) was formulated as a fine suspension in 20% HPBCD in purified water using ultrasonication. The drug was administered intraperitoneally at 10 mg/kg body weight (10 mL/kg. dose volume) with four animals per time point (0.25, 0.5, 0.75, 1, 1.5, and 2 hr). The animals were decapitated at the time points indicated above, and their frontal brains (mainly frontal cortex) were rapidly dissected and frozen. Blood was collected at decapitation, and plasma was separated by centrifugation. Both samples were then stored at −80 °C until further analysis. DETQ concentrations were measured in plasma and brain tissues by liquid chromatography with tandem mass spectrometry (LC/MS). The samples were analyzed using an AB Sciex API 4000 quadrupole mass spectrometer (Applied Biosystems, Foster City, CA) with a TurboIonSpray interface. Brain samples were homogenized in a methanol-water solution (20:80) using a probe sonicator. Both brain and plasma samples underwent extraction procedures. Calibration curves were established by spiking blank plasma or brain samples with an internal standard. The system utilized Shimadzu LC-10AD pumps controlled by an SCL-10A controller (Kyoto, Japan). Sample injections were performed by a Z-215 liquid handler (Gilson, Middleton, WI). Chromatographic separation of all compounds was achieved using a Betasil javelin C18 HPLC column, 20 mm × 2.1 mm, 5 μm (Thermo Fisher Scientific, Waltham, MA). The unbound fraction in brain tissue samples was determined by equilibrium dialysis in mouse brain homogenate mixtures after incubation of the compound for 4.5 hours. The unbound brain concentrations were calculated from the following equation[24]: Totalbrainconcentration*Unboundfractioninbrain=Unboundbrainconcentration(Cu,brain)

dLight1.3b = dLight1.3b (Homo sapiens, UniProt P21728); assay: DA titrations on dLight1.3b-expressing HEK293 cells (confocal fluorescence imaging); type: cell-based
Method: Cells were transfected at 50–60% confluency in glass-bottomed dishes (either individually or in 24-well plates) using the Effectene transfection kit (Qiagen) according to manufacturer instructions, and imaged 24–48 h after transfection. The Flp-In™ T-REx™ 293 cells (Thermo Fisher) with a stably integrated dLight1.3b cassette[48] were cultured as follows: the cells were cultured using HEK293T cell medium with the addition of Blasticidin (15 µg/ml) and Hygromycin B (200 µg/ml). To induce the expression of dLight1.3b, doxycycline (500 ng/ml) was added to the culture medium for 24–48 hours. Before imaging, cells were rinsed with 1 mL of Hank’s Balanced Salt Solution (HBSS, Life Technologies) supplemented with Ca^2+ (2 mM) and Mg^2+ (1 mM), and imaged at room temperature with a final HBSS volume of either 100 µL for each individual 1.5 cm glass bottom dish, or 500 µL for 24-well plates. Time-lapse imaging was performed on an inverted Zeiss LSM 800 confocal microscope using a 488 nm laser and a 40X oil-based objective. During imaging, ligands were added in bolus on the cells using a micropipette to reach the final specified concentrations of ligand over the cells. For quantification, except otherwise noted, regions of interest (ROI) were selected manually using the threshold function of Fiji to isolate the cell membrane. Sensor response (∆F/F) was calculated as the following: (F(t)-F_base)/F_base with F(t) being the ROI fluorescence value at each time point (t), and F_base being the mean fluorescence of the 10-time points immediately prior to ligand addition.

SMILES: C[C@H]1c2cccc(C(C)(C)O)c2C[C@H](CO)N1C(=O)Cc1c(Cl)cccc1Cl [DETQ, 2-(2,6-dichlorophenyl)-1-((1S,3R)-3-(hydroxymethyl)-5-(2-hydroxypropan-2-yl)-1-methyl-3,4-dihydroisoquinolin-2(1H)-yl)ethan-1-one]
- clearance from the brain ([1]; 2 hours post-injection): almost completely cleared
- concentration at 1 h ([1]; male, C57Bl6/N, mouse, brain (frontal brain, unbound concentration), intraperitoneal, 1-hour post-injection, read-out: free brain level): < 50 nM
- concentration at 15 min ([1]; male, C57Bl6/N, mouse, brain (frontal brain, unbound concentration), intraperitoneal, 15 minutes after dosing, read-out: free brain level): ~270 nM
- concentration at 45 min ([1]; male, C57Bl6/N, mouse, brain (frontal brain, unbound concentration), intraperitoneal, 45 minutes post-injection, read-out: free brain level): ~110 nM
- maximal leftward shift in the EC50 of DA (dLight1.3b): ~ 8 fold
- sensor response to DETQ in the absence of DA (dLight1.3b): could not trigger a response
- effect on the DA sensitivity of dLight1.3b (dLight1.3b; D1-PAM 5 μM): strong positive allosteric effect
- sensor fluorescence in the presence of sub-maximal DA (dLight1.3b; DA 100 nM, DETQ 100 nM): strong and significant increase
- maximal fluorescent response to a saturating concentration of DA (dLight1.3b; DA 100 µM, wide range of DETQ concentrations): not affected
- Kb (dLight1.3b; DA titrations with 1 nM to 450 nM DETQ, allosteric EC50 shift, read-out: allosteric affinity constant (Kb)): 54 nM
- effect on sensor responses to noradrenaline (NE) (dLight1.3b; DETQ 50 nM): potentiation
- α factor (dLight1.3b; allosteric EC50 shift fit): 8.6
